How the values were obtained:
Assay in all cases: In vitro antibacterial MIC, broth microdilution
P. aeruginosa 799/61 = assay type: cell-based, Pseudomonas aeruginosa; conditions: P. aeruginosa 799/61 (sensitive strain); Mueller Hinton broth, 20 h at 35° C.
Description: (§1) The compounds of the invention were evaluated against various bacterial strains by determining the minimum inhibitory concentration (MIC) of each compound with respect to each strain. The MIC is defined as the lowest concentration of drug which prevents the growth of the bacteria. A variety of different Gram-negative and Gram-positive bacterial species and strains can be selected for assay purposes depending on the particular desired application. The susceptibility assay is performed in Mueller Hinton broth using a microdilution technique in a final test volume of 100 μl using 96-well microtiter plates. Test compounds are prepared in Mueller-Hinton broth at a concentration equivalent to 2-fold the desired final concentration. The bacterial inoculi are prepared as follow. Bacterial strains are grown overnight at 35° C. on Tryptic Soy agar (TSA). For each strain, one isolated colony is used to inoculate a volume of 8 ml of Mueller Hinton broth and these cultures are incubated overnight (20 h) at 35° C. in a shaking incubator. Culture are then diluted 1:10 and allow to grow for an additional one hour at 35° C. in a shaking incubator. The inoculum used for the susceptibility assay is prepared by diluting the early log-phase (1 h) culture 1:2000 with fresh Mueller Hinton broth. A 50 μl volume of the inoculi, and a 50 μl solution of the test compound prepared as described above is added to each well. This procedure results in an inoculum of approximately 5×10^5 CFU/ml. After incubation for 20 h at 35° C., the absorbance of the cultures in each is read, e.g., using the ThermoMax microtiter plate reader (Molecular Devices) at 650 nm. The MIC is defined as the lowest concentration of compounds which prevents growth of the microorganism and therefore results in a final absorbance equal to that of the drug-free (e.g., test compound free) control.

P. aeruginosa ATCC 27853 = assay type: cell-based, Pseudomonas aeruginosa; conditions: Mueller Hinton broth, 20 h at 35° C.
Description: as §1

P. aeruginosa UPA res. = assay type: cell-based, Pseudomonas aeruginosa; conditions: Mueller Hinton broth, 20 h at 35° C.
Description: as §1

E. coli ATCC 25922 = assay type: cell-based; conditions: Mueller Hinton broth, 20 h at 35° C.
Description: as §1

E. faecalis ATCC 29212 = assay type: cell-based; conditions: Mueller Hinton broth, 20 h at 35° C.
Description: as §1

S. aureus ATCC 29213 = assay type: cell-based; conditions: Mueller Hinton broth, 20 h at 35° C.
Description: as §1

[1] = tested on: S. epidermidis ATCC 31432; assay type: cell-based; conditions: Mueller Hinton broth, 20 h at 35° C.
Description: as §1

[2] = tested on: X. maltophilia ATCC 13637; assay type: cell-based; conditions: Mueller Hinton broth, 20 h at 35° C.
Description: as §1

Compound | Minimal Inhibitory Concentration, MIC (P. aeruginosa 799/61) [µg/mL] | Minimal Inhibitory Concentration, MIC (P. aeruginosa ATCC 27853) [µg/mL] | Minimal Inhibitory Concentration, MIC (P. aeruginosa UPA res.) [µg/mL] | Minimal Inhibitory Concentration, MIC (E. coli ATCC 25922) [µg/mL] | Minimal Inhibitory Concentration, MIC (E. faecalis ATCC 29212) [µg/mL] | Minimal Inhibitory Concentration, MIC (S. aureus ATCC 29213) [µg/mL] | Minimal Inhibitory Concentration, MIC [1] [µg/mL] | Minimal Inhibitory Concentration, MIC [2] [µg/mL]
C[C@H](N)C(=O)N[C@@H](Cc1cccc(O)c1)C(=O)N(C)[C@@H](C)[C@H](NC(=O)[C@H](C)NC(=O)N[C@@H](Cc1c[nH]c2ccccc12)C(=O)O)C(=O)N/C=C1/C[C@@H](O)[C@H](n2ccc(=O)[nH]c2=O)O1 [Pacidamycin-1, pacidamycin-1, reference compound] | 1 | 4 | > 250 | > 250 | 64 | > 250 | > 250 | > 250
pacidamycin-5T | 125 | > 500 | > 500 | > 500 | > 500 | > 500 | > 500 | > 500
pacidamycin-5N | 64 | > 500 | > 500 | > 500 | > 500 | > 500 | > 500 | > 500
C[C@H](NC(=O)N[C@@H](Cc1c[nH]c2ccccc12)C(=O)O)C(=O)N[C@H](C(=O)N/C=C1/C[C@@H](O)[C@H](n2ccc(=O)[nH]c2=O)O1)[C@H](C)N(C)C(=O)[C@@H](N)Cc1cccc(O)c1 [Pacidamycin-4, pacidamycin-4, reference compound] | 2 | 16 | > 250 | 64 | 64 | > 250 | > 250 | 
pacidamycin-4N | 4 | 64 | > 256 |  |  |  |  | 
C[C@H](N)C(=O)N(C)[C@@H](C)[C@H](NC(=O)[C@H](C)NC(=O)N[C@@H](Cc1c[nH]c2ccccc12)C(=O)O)C(=O)N/C=C1/C[C@@H](O)[C@H](n2ccc(=O)[nH]c2=O)O1 [Pacidamycin-D, pacidamycin-D] | 4 | 16 | > 256 |  |  |  |  | 

From patent US6228842A, “Pacidamycins produced by Streptomyces coeruleorubidus” (Microcide Pharmaceuticals, Inc., priority 1998, dated 2001)
